Data on six compounds can be found in article PMC9266561, “1,3-Benzodioxole Derivatives Improve the Anti-Tumor Efficiency of Arsenicals” (International Journal of Molecular Sciences, 2022).

Structures are written as SMILES. Like-named read-outs stand apart in the source and are kept apart here.

Common to all, as to test: cells
One assay concerns COS-7. In kind it is cell-based, African green monkey. Particulars: Chlorocebus sabaeus.
A further assay has as its system NB4. In kind it is cell-based. Particulars: Homo sapiens.
In a further assay the test system is 4T1. The class given is cell-based. To be noted: Mus musculus.
The next assay has as its system PBMC. The class given is cell-based, rat. Particulars: Rattus norvegicus, PBMC.
For the next assay, the system named is Molm-13. The class given is cell-based. Particulars: Homo sapiens.
For another assay, the system named is HeLa. In kind it is cell-based, human. Particulars: Homo sapiens, HeLa.
Setting [1] is: COS-7, 24 h, read-out: IC50 COS-7 24 h.
Setting [2] is: COS-7, 48 h, read-out: IC50 COS-7 48 h.
Where [3] appears, read: NB-4, 24 h, read-out: IC50 NB4 24 h.
Where [4] appears, read: NB-4, 48 h, read-out: IC50 NB4 48 h.
[5] abbreviates: 4T1, 24 h, read-out: IC50 4T1 24 h.
The mark [6] stands for this setting: 4T1, 48 h, read-out: IC50 4T1 48 h.
The mark [7] stands for this setting: MOLM-13, 24 h, read-out: IC50 Molm 24 h.
The mark [8] stands for this setting: MOLM-13, 48 h, read-out: IC50 Molm 48 h.

In general, IC50 refers to the concentration that inhibits the measured activity by half. On to `O=C(Nc1ccc([As]2SCCCS2)cc1)c1ccc2c(c1)OC(F)(F)O2` [PFZ2, N-(4-(1,3,2-dithiarsinan-2-yl)phenyl)-2,2-difluorobenzo[d][1,3]dioxole-5-carboxamide], for which the half-inhibitory concentration (IC50) came out at 6000 nM with COS-7 (setting [1]); 3500 nM in the assay with COS-7 (setting [2]); 500 nM in the assay with NB4 (setting [3]); 300 nM with NB4 (setting [4]); 1000 nM with 4T1 (setting [5]); 800 nM with 4T1 (setting [6]). Further, the 50% inhibitory concentration (IC50) was 6.3 µM with PBMC (24 h, read-out: IC50 PBMC 24 h); 5.7 µM in the assay on PBMC (48 h, read-out: IC50 PBMC 48 h); 800 nM with Molm-13 (setting [7]); 700 nM with Molm-13 (setting [8]); 500 nM with HeLa (24 h, read-out: IC50 HeLa 24 h); 150 nM with HeLa (48 h, read-out: IC50 HeLa 48 h).

Take `COc1cc(C(=O)Nc2ccc([As]3SCCCS3)cc2)cc(OC)c1OC` [TAZ2, N-(4-(1,3,2-dithiarsinan-2-yl)phenyl)-3,4,5-trimethoxybenzamide]: the 50% inhibitory concentration (IC50) with COS-7 (setting [1]) turned out to be 9100 nM; in the assay with COS-7 (setting [2]) it was 5200 nM; in the assay with NB4 (setting [3]), 1000 nM; in the assay on NB4 (setting [4]), 600 nM; with 4T1 (setting [5]) it was 3500 nM; in the assay with 4T1 (setting [6]), 2200 nM. Further, the 50% inhibitory concentration (IC50) came out at 7.3 µM in the assay on PBMC (24 h, read-out: IC50 PBMC 24 h); 6.5 µM in the assay with PBMC (48 h, read-out: IC50 PBMC 48 h); 1600 nM in the assay with Molm-13 (setting [7]); 1500 nM with Molm-13 (setting [8]); 2000 nM with HeLa (24 h, read-out: IC50 HeLa 24 h); 1040 nM with HeLa (48 h, read-out: IC50 HeLa 48 h).

On to `CCc1ccc(C(=O)Nc2ccc([As]3SCCCS3)cc2)cc1` [EZ2, N-(4-(1,3,2-dithiarsinan-2-yl)phenyl)-4-ethylbenzamide], for which the IC50 stood at 4200 nM in the assay with COS-7 (setting [1]); 2100 nM in the assay with COS-7 (setting [2]); 410 nM with NB4 (setting [3]); 300 nM in the assay on NB4 (setting [4]); 1400 ± 120 nM with 4T1 (4T1, 24 h, read-out: IC50 4T1); 1400 nM with 4T1 (setting [5]). Besides, the half-inhibitory concentration (IC50) turned out to be 1400 ± 120 nM in the assay with 4T1 (4T1, 48 h, read-out: IC50 4T1); 1400 nM in the assay on 4T1 (setting [6]); 3.7 µM with PBMC (24 h, read-out: IC50 PBMC 24 h); 2.9 µM in the assay with PBMC (48 h, read-out: IC50 PBMC 48 h); 1100 nM in the assay with Molm-13 (setting [7]); 1020 nM in the assay on Molm-13 (setting [8]). The IC50 in the assay with HeLa (24 h, read-out: IC50 HeLa 24 h) was 1010 nM; in the assay with HeLa (48 h, read-out: IC50 HeLa 48 h), 810 nM.

Take `O=C(Nc1ccccc1[As]1SCCCS1)c1ccc(F)cc1` [FZ5, N-(2-(1,3,2-dithiarsinan-2-yl)phenyl)-4-fluorobenzamide]: the half-inhibitory concentration (IC50) with COS-7 (setting [1]) was 1100 nM; in the assay with COS-7 (setting [2]), 800 nM; in the assay on NB4 (NB-4, 24 h, read-out: IC50 NB4), 150 ± 100 nM; with NB4 (setting [3]), 150 nM; in the assay with NB4 (NB-4, 48 h, read-out: IC50 NB4) it was 150 ± 20 nM; in the assay with NB4 (setting [4]) it was 150 nM. Moreover, the concentration for half-maximal inhibition (IC50) in the assay with 4T1 (setting [5]) was 700 nM; in the assay with 4T1 (setting [6]) it was 600 nM; in the assay on PBMC (24 h, read-out: IC50 PBMC 24 h), 2.4 µM; with PBMC (48 h, read-out: IC50 PBMC 48 h) it was 1.82 µM; with Molm-13 (MOLM-13, 24 h, read-out: IC50 Molm) it was 500 ± 10 nM; in the assay with Molm-13 (setting [7]), 500 nM. Moreover, the 50% inhibitory concentration (IC50) with Molm-13 (MOLM-13, 48 h, read-out: IC50 Molm) was 500 ± 20 nM; with Molm-13 (setting [8]), 500 nM; in the assay with HeLa (24 h, read-out: IC50 HeLa 24 h) it was 350 nM; in the assay with HeLa (48 h, read-out: IC50 HeLa 48 h) it was 150 nM.

As to `O=C(Nc1ccccc1[As]1SCCCS1)c1ccc2c(c1)OCO2` [PZ5, N-(2-(1,3,2-dithiarsinan-2-yl)phenyl)benzo[d][1,3]dioxole-5-carboxamide], the concentration for half-maximal inhibition (IC50) in the assay on COS-7 (setting [1]) was 1010 nM; with COS-7 (setting [2]), 820 nM; in the assay on NB4 (NB-4, 24 h, read-out: IC50 NB4), 300 ± 30 nM; in the assay with NB4 (setting [3]), 260 nM; in the assay on NB4 (NB-4, 48 h, read-out: IC50 NB4) it was 200 ± 20 nM; with NB4 (setting [4]), 140 nM. For the same compound, the IC50 in the assay on 4T1 (setting [5]) worked out at 400 nM; with 4T1 (setting [6]), 830 nM; with PBMC (24 h, read-out: IC50 PBMC 24 h), 5 µM; with PBMC (48 h, read-out: IC50 PBMC 48 h), 4.5 µM; in the assay on Molm-13 (setting [7]), 270 nM; with Molm-13 (setting [8]) it was 240 nM. In addition, the IC50 in the assay on HeLa (24 h, read-out: IC50 HeLa 24 h) was determined as 260 nM; in the assay on HeLa (48 h, read-out: IC50 HeLa 48 h), 140 nM.

Take `Cc1ccc(C(=O)Nc2ccc([As]3SCCCS3)cc2)cc1` [MZ2, N-(4-(1,3,2-dithiarsinan-2-yl)phenyl)-4-methylbenzamide]: the IC50 worked out at 3400 nM in the assay with COS-7 (setting [1]); 1210 nM in the assay on COS-7 (setting [2]); 400 nM in the assay with NB4 (setting [3]); 300 nM with NB4 (setting [4]); 1200 nM in the assay with 4T1 (setting [5]); 400 ± 110 nM with 4T1 (4T1, 48 h, read-out: IC50 4T1). Moreover, the IC50 with 4T1 (setting [6]) was found to be 910 nM; in the assay on PBMC (24 h, read-out: IC50 PBMC 24 h) it was 3.4 µM; in the assay on PBMC (48 h, read-out: IC50 PBMC 48 h), 2.7 µM; with Molm-13 (setting [7]) it was 1200 nM; with Molm-13 (setting [8]), 800 nM; in the assay with HeLa (24 h, read-out: IC50 HeLa 24 h) it was 610 nM. For the same compound, in the assay on HeLa (48 h, read-out: IC50 HeLa 48 h), the half-maximal inhibitory concentration (IC50) turned out to be 400 nM.
